Experimental findings from US6794395B1, “Substituted indolinones, their manufacture and their use as medicaments” (Boehringer Ingelheim Pharma GmbH & Co. KG, priority 1999, dated 2004) are described below.

Molecules are shown by their SMILES.

The subject of one series is Human umbilical endothelial cells (HUVEC). The series is described as follows: Inhibition of VEGF165-stimulated HUVEC proliferation (3H-thymidine incorporation). The class given is cell-based. The settings on record: HUVEC proliferation stimulated with 5 ng/ml VEGF165 and 10 μg/ml heparin, 76 h + 16 h 3H-thymidine. As to the method:
Human umbilical endothelial cells (HUVEC) were cultivated in IMDM (Gibco BRL), supplemented with 10% foetal calf serum (FBS) (Sigma), 50 μM of β-mercaptoethanol (Fluka), standard antibiotics, 15 μg/ml of endothelial cell growth factor (ECGS, Collaborative Biomedical Products) and 100 μg/ml of heparin (Sigma) on gelatine-coated culture dishes (0.2% gelatine, Sigma) at 37° C., under 5% CO2 in a water-saturated atmosphere.
In order to investigate the inhibitory activity of the compounds according to the invention the cells were “starved” for 16 hours, i.e. kept in culture medium without growth factors (ECGS+heparin). The cells were detached from the culture dishes using trypsin/EDTA and washed once in serum-containing medium. Then they were seeded out in amounts of 2.5×10^3 cells per well.
The proliferation of the cells was stimulated with 5 ng/ml of VEGF165 (vascular endothelial growth factor; H. Weich, GBF Braunschweig) and 10 μg/ml of heparin. As a control, 6 wells in each dish were not stimulated.
The compounds according to the invention were dissolved in 100% dimethylsulphoxide and added to the cultures in various dilutions as triple measurements, the maximum dimethyl sulphoxide concentration being 0.3%.
The cells were incubated for 76 hours at 37° C., then for a further 16 hours ^3H-thymidine (0.1 μCi/well, Amersham) was added in order to determine the DNA synthesis. Then the radioactively labelled cells were immobilised on filter mats and the radioactivity incorporated was measured in a β-counter. In order to determine the inhibitory activity of the compounds according to the invention the mean value of the non-stimulated cells was subtracted from the mean value of the factor-stimulated cells (in the presence or absence of the compounds according to the invention).
The relative cell proliferation was calculated as a percentage of the control (HUVEC without inhibitor) and the concentration of active substance which inhibits the proliferation of the cells by 50% (IC50) was determined.
(Incorporation of labelled thymidine or its analogues reports DNA synthesis.)
Regarding `COc1cc2c(cc1OC)/C(=C(/Nc1ccc(CN(C)Cc3ccccc3)cc1)c1ccccc1)C(=O)N2` [1 (3), 3-(Z)-(1-{4-[(N-benzyl-N-methyl-amino)-methyl)-anilino}-1-phenyl-methylidene)-5,6-dimethoxy-2-indolinone], the IC50 was 270 nM.
For the molecule `COc1cc2c(cc1OC)/C(=C(/Nc1ccc(N(C)C(=O)CN(C)C)cc1)c1ccccc1)C(=O)N2` [1 (8), 3-(Z)-{1-[4-(N-dimethylaminomethylcarbonyl-N-methyl-amino)-anilino]-1-phenyl-methylidene}-5,6-dimethoxy-2-indolinone], the IC50 stood at 50 nM.
For `COc1cc2c(cc1OC)/C(=C(/Nc1ccc(N(CCN(C)C)C(C)=O)cc1)c1ccccc1)C(=O)N2` [1 (17), 3-(Z)-(1-{4-[N-acetyl-N-(2-dimethylamino-ethyl)-amino]-anilino}-1-phenyl-methylidene)-5,6-dimethoxy-2-indolinone], the IC50 stood at 40 nM.
Turning to `COc1cc2c(cc1OC)/C(=C(/Nc1ccc(N(CCCN(C)C)C(C)=O)cc1)c1ccccc1)C(=O)N2` [1 (18), 3-(Z)-(1-{4-[N-acetyl-N-(3-dimethylamino-propyl)-amino]-anilino}-1-phenyl-methylidene)-5,6-dimethoxy-2-indolinone], the IC50 amounted to 40 nM.
The same measure, in the same setting: the result for `CC/C(Nc1ccc(N(C)C(=O)CN(C)C)cc1)=C1/C(=O)Nc2cc(OC)c(OC)cc21` [1 (50), 3-(Z)-{1-[4-(N-dimethylaminomethylcarbonyl-N-methylamino)-anilino]-1-ethyl-methylidene}-5,6-dimethoxy-2-indolinone] reads 830 nM.
Still for that read-out and setting: with `COc1cc2c(cc1OC)/C(=C(/Nc1ccc(CN(C)C)cc1)c1ccccc1)C(=O)N2` [Example 1 (6), 3-(Z)-(1-(4-(dimethylaminomethyl)-anilino]-1-phenyl-methylidene}-5,6-dimethoxy-2-indolinone] the figure was 20 nM; with `COc1cc2c(cc1OC)/C(=C(/Nc1ccc(CN3CCCCC3)cc1)c1ccccc1)C(=O)N2` [Example 1, 3-(Z)-{1-[4-(piperidin-1-yl-methyl)-anilino]-1-phenyl-methylidene}-5,6-dimethoxy-2-indolinone], 30 nM.
Consider `COc1cc2c(cc1OC)/C(=C(/Nc1ccc(CCN3CCC(C(=O)N(C)C)CC3)cc1)c1ccccc1)C(=O)N2` [Example 3, 3-(Z)-(1-{4-[2-(4-dimethylcarbamoyl-piperidin-1-yl)-ethyl]-anilino}-1-phenyl-methylidene)-5,6-dimethoxy-2-indolinone], for which the IC50 is 50 nM.
The same measure, in the same setting: the result for `Nc1ccc2c(c1)NC(=O)/C2=C(\Nc1ccc(CN2CCCCC2)cc1)c1ccccc1` [Example 4, 6-amino-3-(Z)-{1-[4-(piperidin-1-yl-methyl)-anilino]-1-phenyl-methylidene}-2-indolinone] reads 40 nM.

Test system in a further series: not listed separately
Nature of the series: Tolerance test on mice (oral LD50). The settings on record: mouse, in vivo, read-out: approximate oral LD50. The procedure: In addition the compound of Example 1 (6) was tested on mice for its tolerance. The approximate oral LD50 for this compound is over 1,000 mg/kg. The compounds of general formula I are therefore well tolerated.
Turning to `COc1cc2c(cc1OC)/C(=C(/Nc1ccc(CN(C)C)cc1)c1ccccc1)C(=O)N2` [Example 1 (6), 3-(Z)-(1-(4-(dimethylaminomethyl)-anilino]-1-phenyl-methylidene}-5,6-dimethoxy-2-indolinone], the LD50 was greater than 1000 mg/kg.

Usually IC50 stands for the concentration needed to halve the response being measured. A word on the LD50: it is the dose expected to kill half of the subjects tested.
